Results on 14 molecules are retold here after PubChem BioAssay AID212 (DTP/NCI, 2004).

The experiment has as its system BDF1 mice, colon carcinoma 38 sc, T/C %. Nature of the experiment: NCI In Vivo Anticancer Drug Screen. Data for tumor model Colon Carcinoma 38 (subcutaneous) in B6D2F1 (BDF1) mice. To be noted: endpoint: median tumor weight (est.), higher = larger tumour. The essentials:
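T/C readout: treated group (T) measurement over vehicle control group (C) measurement. Endpoint is survival or tumor size in mice bearing a transplanted tumor.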

The mark [1] stands for this setting: dose: 25.0 mg/kg/injection, schedule: Q07DX002 (ip), vehicle: Klucel (hydroxypropylcellulose) (HPC).
Where [2] appears, read: dose: 25.0 mg/kg/injection, schedule: Q07DX002 (ip), vehicle: saline.
The mark [3] stands for this setting: dose: 50.0 mg/kg/injection, schedule: Q07DX002 (ip), vehicle: saline.
Setting [4] is: dose: 200.0 mg/kg/injection, schedule: Q07DX002 (ip), vehicle: saline.
Setting [5] is: dose: 12.5 mg/kg/injection, schedule: Q07DX003 (ip), vehicle: saline with Tween-80.
[6] abbreviates: dose: 25.0 mg/kg/injection, schedule: Q07DX003 (ip), vehicle: saline with Tween-80.
[7] abbreviates: dose: 50.0 mg/kg/injection, schedule: Q07DX003 (ip), vehicle: saline with Tween-80.
[8] abbreviates: dose: 50.0 mg/kg/injection, schedule: Q07DX002 (ip), vehicle: saline with Tween-80.
Where [9] appears, read: dose: 25.0 mg/kg/injection, schedule: Q07DX002 (ip), vehicle: saline with Tween-80.

Values joined by “and” are separate entries in the source; they are usually repeats but may differ in a detail not shown here. Equal entries are not always repeated. Results filed as inconclusive are left out. *1 amine or outer side, *2 acyl side, *3 side chain or, on linkers, in order; H or OH if unused. Where a SMILES comes first, the peptide text is derived from it. Bridges are numbered along the chain shown (N, C = ends). Roman numbers before positions name the chains, in order. [ ]: non-standard residue; d: D form. Actinocin(1to9) = Cc1c2oc3c(C)ccc(C(=O)[*:2])c3nc-2c(C(=O)[*:1])c(N)c1=O; NMeV = CN[CH](C(=O)O)C(C)C; Aze = O=C(O)[CH]1CCN1; Sar = CNCC(=O)O

As to `O=C(O)C1(NO)CCCCC1`, the T/C is 56 % of control under setting [1]; 86 % of control and 105 % of control (dose: 50.0 mg/kg/injection, schedule: Q07DX002 (ip), vehicle: Klucel (hydroxypropylcellulose) (HPC)); 118 % of control and 94 % of control (dose: 400.0 mg/kg/injection, schedule: Q07DX002 (ip), vehicle: Klucel (hydroxypropylcellulose) (HPC)); 112 % of control and 103 % of control (dose: 800.0 mg/kg/injection, schedule: Q07DX002 (ip), vehicle: Klucel (hydroxypropylcellulose) (HPC)).

For `CCCCc1ccc(-n2c(C)c(COC(=O)NC)c(COC(=O)NC)c2C)cc1`, the T/C is 88 % of control (dose: 12.5 mg/kg/injection, schedule: Q07DX002 (ip), vehicle: Klucel (hydroxypropylcellulose) (HPC)); 66 % of control under setting [1]; 60 % of control (dose: 200.0 mg/kg/injection, schedule: Q07DX002 (ip), vehicle: Klucel (hydroxypropylcellulose) (HPC)).

As for `Nc1ccc(S(=O)(=O)Nc2cnc3c(Cl)cccc3n2)cc1`, the T/C (dose: 250.0 mg/kg/injection, schedule: Q07DX002 (ip), vehicle: DMSO) is 82 % of control.

Consider `CN(C)C=O`, for which the T/C under setting [2] is 45 % of control; the T/C under setting [3] was 83 % of control; the T/C under setting [4] is 89 % of control; the T/C (dose: 400.0 mg/kg/injection, schedule: Q07DX002 (ip), vehicle: saline) was 89 % of control and 92 % of control; the T/C (dose: 800.0 mg/kg/injection, schedule: Q07DX002 (ip), vehicle: saline) was 115 % of control.

On to `O=C(O)C(CSC(c1ccccc1)(c1ccccc1)c1ccccc1)N=Cc1cccs1` (stereo unspecified), for which the T/C is, setting by setting: under setting [2], 62 % of control; (dose: 25.0 mg/kg/injection, schedule: Q07DX002 (ip), vehicle: suspension in saline) 103 % of control; under setting [3], 101 % of control; (dose: 50.0 mg/kg/injection, schedule: Q07DX002 (ip), vehicle: suspension in saline) 84 % of control; (dose: 100.0 mg/kg/injection, schedule: Q07DX002 (ip), vehicle: saline) 87 % of control; (dose: 100.0 mg/kg/injection, schedule: Q07DX002 (ip), vehicle: suspension in saline) 107 % of control. The T/C was 51 % of control under setting [4] and 62 % of control (dose: 200.0 mg/kg/injection, schedule: Q07DX002 (ip), vehicle: suspension in saline).

For `CCOC(C)C(/C=N/NC(N)=S)=NNC(N)=S` (stereo unspecified), the T/C runs as follows: under setting [5], 111 % of control; under setting [6], 61 % of control; under setting [7], 99 % of control; (dose: 100.0 mg/kg/injection, schedule: Q07DX003 (ip), vehicle: saline with Tween-80) 155 % of control; (dose: 200.0 mg/kg/injection, schedule: Q07DX003 (ip), vehicle: saline with Tween-80) 73 % of control; (dose: 400.0 mg/kg/injection, schedule: Q07DX003 (ip), vehicle: saline with Tween-80) 66 % of control.

For the molecule `Cc1cnc(/C=N\NC(N)=S)c2cccc(N)c12`, the T/C is, setting by setting: (dose: 6.25 mg/kg/injection, schedule: Q07DX002 (ip), vehicle: saline with Tween-80) 110 % of control; (dose: 6.25 mg/kg/injection, schedule: Q07DX003 (ip), vehicle: saline with Tween-80) 88 % of control; (dose: 12.5 mg/kg/injection, schedule: Q07DX002 (ip), vehicle: saline with Tween-80) 69 % of control; under setting [5], 111 % of control; under setting [6], 122 % of control; under setting [8], 36 % of control and 57 % of control. Further, the T/C under setting [7] was 45 % of control.

For `CN1N=C(N)c2cn(C3OC(COP(=O)(O)O)C(O)C3O)c3ncnc1c23` (stereo unspecified), the T/C is 84 % of control (dose: 6.25 mg/kg/injection, schedule: Q07DX002 (ip), vehicle: water); 68 % of control and 91 % of control (dose: 25.0 mg/kg/injection, schedule: Q07DX002 (ip), vehicle: water); 73 % of control (dose: 100.0 mg/kg/injection, schedule: Q07DX002 (ip), vehicle: water).

On to `C1OCN2CSCC12` (stereo unspecified), for which the T/C is 97 % of control under setting [9]; 67 % of control under setting [8]; 85 % of control (dose: 100.0 mg/kg/injection, schedule: Q07DX002 (ip), vehicle: saline with Tween-80); 79 % of control (dose: 200.0 mg/kg/injection, schedule: Q07DX002 (ip), vehicle: saline with Tween-80); 80 % of control (dose: 400.0 mg/kg/injection, schedule: Q07DX002 (ip), vehicle: saline with Tween-80).

Consider `O=S(=O)(c1ccccc1)N1CN2CCN(C2)C1`, for which the T/C by setting is: under setting [9], 94 % of control; under setting [8], 62 % of control.

With `Cc1c2oc3c(C)ccc(C(=O)NC4C(=O)NC(C(C)C)C(=O)N5CCCC5C(=O)N(C)CC(=O)N(C)C(C(C)C)C(=O)OC4C)c3nc-2c(C(=O)NC2C(=O)NC(C(C)C)C(=O)N3CCC3C(=O)N(C)CC(=O)N(C)C(C(C)C)C(=O)OC2C)c(N)c1=O` (stereo unspecified) (I: TV[Aze][Sar][NMeV] / II: TVP[Sar][NMeV]; ester I:1-I:C, II:1-II:C; linker I:N-II:N via Actinocin(1to9); configuration not given here), the T/C was 165 % of control (dose: 25.0 micrograms/kg/injection, schedule: Q07DX002 (ip), vehicle: saline); 124 % of control (dose: 37.5 micrograms/kg/injection, schedule: Q07DX002 (ip), vehicle: saline + alcohol); 80 % of control (dose: 50.0 micrograms/kg/injection, schedule: Q07DX002 (ip), vehicle: saline); 93 % of control (dose: 200.0 micrograms/kg/injection, schedule: Q07DX002 (ip), vehicle: saline); 51 % of control (dose: 400.0 micrograms/kg/injection, schedule: Q07DX002 (ip), vehicle: saline); 48 % of control and 50 % of control and 73 % of control (dose: 600.0 micrograms/kg/injection, schedule: Q07DX002 (ip), vehicle: saline + alcohol). Moreover, for the setting “dose: 800.0 micrograms/kg/injection, schedule: Q07DX002 (ip), vehicle: saline”, the T/C is 21 % of control.

As to `C[CH2][Ge]1([CH2]C)[CH2]CC2(CCN(CCCN(C)C)C2)C[CH2]1`, the T/C (dose: 6.25 mg/kg/injection, schedule: Q07DX002 (ip), vehicle: saline) was 97 % of control; the T/C under setting [2] is 105 % of control; the T/C under setting [3] is 110 % of control.

`CCC1(O)CC2CN(CCc3c([nH]c4ccccc34)C(C(=O)OC)(c3cc4c(cc3OC)N(C)C3C(O)(C(N)=O)C(O)C5(CC)C=CCN6CCC43C65)C2)C1` (stereo unspecified) (tested in a mixture with another compound): the T/C (dose: 0.12 mg/kg/injection, schedule: Q07DX002 (ip), vehicle: water) is 87 % of control; the T/C (dose: 0.5 mg/kg/injection, schedule: Q07DX002 (ip), vehicle: water) was 119 % of control and 94 % of control; the T/C (dose: 2.0 mg/kg/injection, schedule: Q07DX002 (ip), vehicle: water) was 36 % of control and 48 % of control; the T/C (dose: 4.0 mg/kg/injection, schedule: Q07DX002 (ip), vehicle: water) was 5 % of control and 15 % of control.

Consider `O=NN(CCCl)C(=O)NC1[C@H](O)CCC[C@@H]1O` (stereo partly specified), for which the T/C by setting is: (dose: 1.25 mg/kg/injection, schedule: Q07DX002 (ip), vehicle: saline) 68 % of control; (dose: 2.5 mg/kg/injection, schedule: Q07DX002 (ip), vehicle: saline) 53 % of control and 76 % of control; (dose: 10.0 mg/kg/injection, schedule: Q07DX002 (ip), vehicle: saline) 9 % of control and 26 % of control.
